Laboratory results reported in patent publication US5195966A, “Treatment of mastitis and applicator therefor” (Diversey Limited, priority 1990, dated 1993).

Assays:
[1] = cited from earlier work
rats = assay: LD50 of Clorpactin WCS-90 in a milk vehicle by the oral route; type: in vivo; conditions: sterilized, γ-irradiated (2.5 megarads)
E. coli [2] = assay: Minimum inhibitory concentration against E. coli; type: cell-based; conditions: E. coli (intestinal flora)
St. faecalis = assay: Minimum inhibitory concentration against St. faecalis; type: cell-based; conditions: St. faecalis (intestinal flora)
[3] = system: starters Streptococcus thermophilus and Lactobacillus bulgarius; assay: Inhibitory effect on yoghurt starter cultures (lactic acid by titratable acidity); type: cell-based
Experimental: The inhibitory effect of "Clorpactin" on starter cultures was also investigated: Raw whole milk was pasteurized and spiked with various concentrations of freshly prepared "Clorpactin". These samples were inoculated with the starters Streptococcus thermophilus and Lactobacillus bulgarius contained in natural yoghurt, incubated at 37°/5 hours and the percent lactic acid determined by titratable acidity (BSI, 1741:1963).

[4] = system: Staph. coagulase positive; assay: Clinical cure of mastitis, Staph. coagulase positive; type: in vivo, dairy cattle; conditions: 40 ml 1.25% w/v, 6 infusions at successive milkings
Description: (§1) Efficacy studies used half herds on a positive control and half herds on the experimental treatment. The protocol agreed was that herds were randomly split into two halves by number. Odd numbered cows received experimental treatment and even numbered cows received the positive control. Any animal sufficiently badly affected (i.e. systematically affected) should be the subject of a visit from a veterinary surgeon and was not included in the trial on either side.
(§2) Milk samples of each infected quarter were sent to the MMB Laboratories for cell count and bacterial identification as follows:.
(§3) A clinical cure is defined as the udder returning to normal function.
(§4) 40 ml of 1.25% w/v solution of sodium oxychlorosene infused 6 times at 6 milkings.
(§5) 1 full tube of 100 mg procaine penicillin/100 mg dihydro-streptomycin sulphate infused 6 times at 6 milkings. Five measurements can be made from the figures available:
(§6) Odd numbered animals. Sodium oxychlorosene. 40 ml 1.25% w/v. 6 times at successive milkings.
(§7) Procaine penicillin/Dihydrostreptomycin sulphate. 6 times at 6 milkings.

E. coli [5] = assay: Clinical cure of mastitis, E. coli; type: in vivo, dairy cattle; conditions: of 4 cases; 40 ml 1.25% w/v, 6 infusions at successive milkings
Description: as §1, §2, §3, §4, §5, §6, §7

Str. dysgalactiae = assay: Clinical cure of mastitis, Str. dysgalactiae; type: in vivo, dairy cattle; conditions: 40 ml 1.25% w/v, 6 infusions at successive milkings
Description: as §1, §2, §3, §4, §5, §6, §7

Str. uberis = assay: Clinical cure of mastitis, Str. uberis; type: in vivo, dairy cattle; conditions: 40 ml 1.25% w/v, 6 infusions at successive milkings
Description: as §1, §2, §3, §4, §5, §6, §7

Str. agalactiae = assay: Clinical cure of mastitis, Str. agalactiae; type: in vivo, dairy cattle; conditions: 40 ml 1.25% w/v, 6 infusions at successive milkings
Description: as §1, §2, §3, §4, §5, §6, §7

mastitis = assay: Clinical efficacy in mastitis, overall and number of infusions to effect a clinical cure; type: in vivo, dairy cattle
Description: as §1, §2, §3, §4, §5
(§8) (The variations in n, the number of determinations from which the mean cell count is calculated, are due to various factors, such as samples leaking in transit, faster decomposition of samples in hot weather, especially where no inhibitor substances are present (i.e. sodium oxychlorosene). Mean number of infusions to effect a clinical cure where a clinical cure is affected after up to 6 infusions.

[6] = system: somatic cell counts in milk; assay: Mean somatic cell counts in milk during and after completed treatments; type: in vivo, dairy cattle
Description: as §2
Somatic cell counts in milk from individual quarters is an indication of the state of health of that quarter. The higher the cell count, the greater is the degree of infection or the irritant effect in the udder.
The mean cell counts for all experimental milk samples submitted to the MMB are shown below. It is not always possible to obtain a cell count if the milk is obviously mastitic or if the sample deteriorates in transit. One problem with sodium oxychlorosene samples is that, due to lack of inhibitory effects, samples in transit may deteriorate quite rapidly. Samples containing antibiotic inhibitors are generally better protected from microbiological deterioration in transit. Some samples, when specifically needed for cell counts and not for causative organism assay, have been protected by the addition of formalin. This was carried out, for instance, when the irritancy studies were carried out.
as §8

dairy cattle = conditions: bovine, in vivo
[7] = in vivo
Description: The completed work, which takes the form of a series of individual studies, monitors the level of residues in milk from cows that were subjected to six infusions of a single normal strength "Clorpactin" dose (0.5 grams in 40 mls of physiological saline), both during infusion and for a series of milkings after the treatment was complete.
Analysis of the milk samples from each cow was by ion-pair reverse-phase chromatography. Calculation of the "Clorpactin" residues was, in the case of Study 01, by the peak height method, as the milk used for the standards was obtained from a different source from the cows under test (consequent detection limit 7 ppm). In studies, 02, 03 and 04 as the standards were made in milk obtained from the cow under test a few days prior to treatment, the peak area method was used (detection limit 1 ppm). […] Treatments:
Two mid-lactation cows (Fresian) were selected for the trial, with each being subjected to one course of treatment with the ""Clorpactin WCS-90". Treatments comprised six infusions, following six successive milkings, of "Clorpactin" at a single normal strength dose (0.5 gms per 40 mls of physiological saline)
Two healthy mid-lactation cows (Fresian) were selected for this trial, with again each cow being subjected to a single course of treatment with "Clorpactin WCS-90" Study 02 differed from Study 01 in that a sample of the milk from the quarters under test was removed from the cow a few days prior to treatment, to enable accurate standards to be prepared.
Three healthy mid-lactation cows (Fresian) were selected for the trial, with each being subjected to one course of treatment with the "Clorpactin WCS-90", to each of the four quarters of the animals.
The milk from all four quarters was monitored for residues during and after treatment, with the standards being made up in milk obtained from the quarters a few days before the trial.
Two mastitic cows, used in the efficacy study, were monitored for residues in the milk from a point where the milk appeared to be normal. It was not possible to evaluate the severely mastitic milk as no standards may be prepared to evaluate milk that is constantly changing in composition. The standards used in this case were made in milk obtained some 4 days after the last sample was taken.
Means cited at the foot of the Table are calculated taking the <7 ppm and <1 ppm results as 7 and 1, respectively.

[8] = bovine, in vivo
Experimental: An experimental study was conducted to determine if any absorption occurs between quarters during a course of treatment with "Clorpactin WCS-90".
The method used was to infuse two of the quarters of a healthy cow with a double normal strength course of treatment and to monitor each of the four quarters for "Clorpactin" residues, both during and after the trial. This with the assumption that if the material were being transferred between quarters by any mechanism it would be detected in the untreated quarters.
Analysis of the milk samples from each quarter was by ion-pair reverse-phase chromatography.
Calculation of the "Clorpactin" residues was by peak area with the milk used for the standards being prepared from milk obtained several days before treatment.
Two of the quarters were each infused with a double normal dose of "Clorpactin WCS-90" (2×0.5 g in 40 mls of physiological saline) on six consecutive occasions following 6 milkings.
The milk from all four quarters was monitored for residues both during and after the trial to determine if any transfer to untreated quarters had occurred.
The first infusion occurred after Milking No. 1, with the consequence that Milking 1 represents the background.

Question: Which results are given for (mon)oxychlorosene?
Answer: hydrolysis in water ([1]; after dissolving): hydrolyses rapidly; dissolution in water [1]: dissolves slowly in water

Question: What does the source list for sodium oxychlorosene?
Answer: LD50 (rats): > 5000 mg/kg; minimum inhibitory concentration (E. coli [2]): approximately 2000 ppm; minimum inhibitory concentration (St. faecalis): approximately 2000 ppm; percent lactic acid ([3]; Clorpactin-spiked milk up to 0.01% (100 ppm), 37°/5 hours, control also about 0.9%): about 0.9 % lactic acid; effect on yoghurt starter culture activity ([3]; conclusion): no adverse affect on yoghurt starter culture activity; effect on lactic acid production ([3]; levels of up to 0.01% (100 ppm) in pasteurized milk, 37°/5 hours): no effect on lactic acid production; % Clinical Cures ([4]; 72 cases): 90%; Clinical Cures ([4]; of 72 cases): 65; Clinical Cures (E. coli [5]): 3; % Clinical Cures (Str. dysgalactiae; 10 cases): 70%; Clinical Cures (Str. dysgalactiae; of 10 cases): 7; % Clinical Cures (Str. uberis; 25 cases): 76%; Clinical Cures (Str. uberis; of 25 cases): 19; % Clinical Cures (Str. agalactiae; 51 cases): 82%; Clinical Cures (Str. agalactiae; of 51 cases): 41; clinical cure versus the conventional antibiotic (mastitis; 1.25% w/v, 95% confidence level): superior to the conventional antibiotic; significance (p) of mean number of infusions, Experimental vs Positive control (mastitis; 72 degrees of freedom, t = 3.098): < 0.01; Mean number of infusions to effect a clinical cure (mastitis; clinical cure effected after up to 6 infusions, n = 70 (sodium oxychlorosene 1.25% w/v, On1 1.61), n = 30 (antibiotic, On1 1.10)): 4.11; Mean Cell Counts ([6]; day 0): 6870; Mean Cell Counts ([6]; day 1): 6092; Mean Cell Counts ([6]; day 2): 4912; Mean Cell Counts ([6]; day 3): 4845; Mean Cell Counts ([6]; day 4): 3468; Mean Cell Counts ([6]; day 5): 2018; Mean Cell Counts ([6]; day 12): 1576; Mean Cell Counts ([6]; day 19): 965; adverse effects (dairy cattle): No adverse effects were found; 10× mean residue level after withdrawal period [7]: 31 ppm; levels detected after treatment is complete [7]: quickly drops off to background; milking by which background has been achieved [7]: ≤ 8; withdrawal after treatment supported by the data [7]: one milking withdrawal; Clorpactin in the untreated quarters [8]: No evidence of any "Clorpactin" was detected in the untreated quarters; milking number by which level is clear [8]: ≤ 8; transference to the untreated quarters [8]: no mechanism of transference
